The text below walks through data of patent US5352659A, “Endothelin analogs and uses thereof” (Takeda Chemical Industries, priority 1991, dated 1994).

Bridge positions count the residues as written; N and C are the ends. Peptide text beside a SMILES is read from it. Some results are limits rather than exact numbers.

For one test, the target named is endothelin receptor. The experiment in a line: Assay of affinity for receptor (inhibition of 125I-ET-1 binding to porcine myocardial membrane fraction). The following applies: for Receptor binding activity (specific activity): relative to ET-1 = 100. As to the method: Assay of Affinity for Receptor
A membrane fraction prepared from the porcine heart was diluted to 0.15 mg/ml by using a buffer solution for assay, and 100 μl of the resulting suspension of the membrane fraction was poured into each assay tube to use for assay. To this suspension of the membrane fraction was added 2 μl of 5 nM ^125 I labeled endothelin-1 solution. Further, 3 μl of a test peptide solution was added thereto, followed by incubation at a temperature of 25° C. for 1 hour. Then, the resulting suspension was diluted with 900 μl of the buffer solution for assay cooled with ice, and thereafter separated into a supernatant and a precipitate by centrifugation at 12,000×g for 10 minutes. Cell membranes and an endothelin receptor embedded therein were contained in the precipitate, and radioactive iodine-labeled endothelin combined with the receptor was also recovered in the precipitate. Accordingly, the amount of radioactive iodine-labeled endothelin combined with the endothelin receptor was determined by measuring the amount of radioactive iodine contained in the precipitate with a gamma-ray counter.

For the next test, the system named is porcine coronary artery. The experiment in a line: Constrictor activity on porcine coronary smooth muscles. The note with it: for Maximum constriction (% 60 mM KCl): porcine coronary artery strips, normalized to 60 mM KCl response; for Constrictor activity (specific activity): relative to ET-1 = 100. On the procedure: Spiral strips 2 mm×15 mm prepared from the coronary right ramus circumflexus from which the adventitial connective tissues and the endothelial cells were removed were set to 4 ml organ baths. The tension of each strip was detected by a force displacement transducer UL-10GR (Minebea), and recorded by a polygraph (NEC Sanei). The organ baths were maintained at 37° C., and filled with a Krebs-Henseleit solution (composition: 118 mM NaCl, 4.7 mM KCl, 2.5 mM CaCl2, 1.2 mM KH2 PO4, 25.0 mM NaHCO3, 1.2 mM MgSO4, 10.0 mM glucose) gassed with 95% O2 and 5% CO2.
A tension of 1.25 to 1.5 g was applied to each of the strips, followed by equilibration for 1.5 hours. 60 mM KCl was repeatedly applied thereto at intervals of 30 minutes until the constriction response became constant. After additional equilibration for 1.5 hours, a sample for assay was given thereto. The constriction of the strips was normalized by the constriction response of the individual strips to 60 mM KCl and statistically processed.
(2) As to the antagonistic property of the peptides of the present invention to endothelin, the affinity for an endothelin receptor and the constrictor activity on porcine coronary smooth muscles (according to the method described in (1) described above) were assayed. The affinity for the receptor was assayed by the following method.

Turning to `CC[C@H](C)[C@H](NC(=O)[C@H](CC(=O)O)NC(=O)[C@H](CC(C)C)NC(=O)[C@H](Cc1c[nH]cn1)NC(=O)[C@@H]1CSSC[C@H](N)C(=O)N[C@@H](CO)C(=O)N[C@H]2CSSC[C@H](NC(=O)[C@H](CCC(=O)O)NC(=O)[C@H](CCCCN)NC(=O)[C@H](CC(=O)O)NC(=O)[C@H](CCSC)NC(=O)[C@H](CC(C)C)NC(=O)[C@H](CO)NC(=O)[C@H](CO)NC2=O)C(=O)N[C@@H](C(C)C)C(=O)N[C@@H](Cc2ccc(O)cc2)C(=O)N[C@@H](Cc2ccccc2)C(=O)N1)C(=O)N[C@H](C(=O)N[C@@H](Cc1c[nH]c2ccccc12)C(=O)O)[C@@H](C)CC` [ET-1, endothelin-1, reference compound], on endothelin receptor (read-out: IC50, concentration required to prevent 50% of the binding of I125-ET1 to the porcine myocardial membrane fraction), the IC50 stood at […]. In addition, in the test with endothelin receptor, the “Receptor binding activity (specific activity)” value (from here on “Receptor binding activity”) worked out at […]. For the same compound, the “Maximum constriction (% 60 mM KCl)” value with porcine coronary artery is on record as 120 % 60 mM KCl. Also, the EC50 with porcine coronary artery (porcine coronary artery, read-out: EC50 (% KCl), concentration which induces 50% of the constriction of the porcine coronary artery due to 60 mM KCl) amounted to 1.6 nM. In the test with porcine coronary artery (porcine coronary artery), the “Constrictor activity (specific activity)” value worked out at […].
Take `CC[C@H](C)[C@H](NC(=O)[C@H](CC(C)C)NC(=O)[C@H](CC(N)=O)NC(=O)[C@H](CC(C)C)NC(=O)[C@H](Cc1c[nH]cn1)NC(=O)[C@@H]1CSSC[C@H](N)C(=O)N[C@@H](CO)C(=O)N[C@H]2CSSC[C@H](NC(=O)[C@H](CCC(=O)O)NC(=O)[C@H](CCCCN)NC(=O)[C@H](CC(=O)O)NC(=O)[C@H](CCSC)NC(=O)[C@H](CC(C)C)NC(=O)[C@H](CO)NC(=O)[C@H](CO)NC2=O)C(=O)N[C@@H](C(C)C)C(=O)N[C@@H](Cc2ccc(O)cc2)C(=O)N[C@@H](Cc2ccccc2)C(=O)N1)C(=O)N[C@@H](Cc1c[nH]c2ccccc12)C(=O)O` [Example 7, [Asn^18, Leu^19]-ET-1] (H-CSCSSLMDKECVYFCHLNLIW-OH; disulfide 1-15, 3-11): in the test with endothelin receptor, the “Receptor binding activity” value was found to be 12. Also, in the test on porcine coronary artery, the “Maximum constriction (% 60 mM KCl)” value was 4 % 60 mM KCl. Moreover, in the test with porcine coronary artery (porcine coronary artery), the “Constrictor activity (specific activity)” value was less than 0.1.
Take `CC[C@H](C)[C@H](NC(=O)[C@H](CC(C)C)NC(=O)[C@@H](NC(=O)[C@H](CC(C)C)NC(=O)[C@H](Cc1c[nH]cn1)NC(=O)[C@@H]1CSSC[C@H](N)C(=O)N[C@@H]([C@@H](C)O)C(=O)N[C@H]2CSSC[C@H](NC(=O)[C@H](CCC(=O)O)NC(=O)[C@H](CCCCN)NC(=O)[C@H](CC(=O)O)NC(=O)[C@H](CCCCN)NC(=O)[C@H](Cc3ccc(O)cc3)NC(=O)[C@H]([C@@H](C)O)NC(=O)[C@H](Cc3ccccc3)NC2=O)C(=O)N[C@@H](C(C)C)C(=O)N[C@@H](Cc2ccc(O)cc2)C(=O)N[C@@H](Cc2ccc(O)cc2)C(=O)N1)[C@@H](C)O)C(=O)N[C@@H](Cc1c[nH]c2ccccc12)C(=O)O` [Example 9, [Thr^18, Leu^19]-ET-3] (H-CTCFTYKDKECVYYCHLTLIW-OH; disulfide 1-15, 3-11): in the test with endothelin receptor, the “Receptor binding activity” value stood at 4.0. Also, the “Maximum constriction (% 60 mM KCl)” value with porcine coronary artery is recorded as 12 % 60 mM KCl. Besides, in the test on porcine coronary artery (porcine coronary artery), the “Constrictor activity (specific activity)” value was less than 0.1.
In the same order, the values of `CC[C@H](C)[C@H](NC(=O)[C@H](CC(N)=O)NC(=O)[C@@H](NC(=O)[C@H](CC(C)C)NC(=O)[C@H](Cc1c[nH]cn1)NC(=O)[C@@H]1CSSC[C@H](N)C(=O)N[C@@H](CO)C(=O)N[C@H]2CSSC[C@H](NC(=O)[C@H](CCC(=O)O)NC(=O)[C@H](CCCCN)NC(=O)[C@H](CC(=O)O)NC(=O)[C@H](CCSC)NC(=O)[C@H](CC(C)C)NC(=O)[C@H](CO)NC(=O)[C@H](CO)NC2=O)C(=O)N[C@@H](C(C)C)C(=O)N[C@@H](Cc2ccc(O)cc2)C(=O)N[C@@H](Cc2ccccc2)C(=O)N1)[C@@H](C)O)C(=O)N[C@@H](Cc1c[nH]c2ccccc12)C(=O)O` [Example 5, [Thr^18, Asn^19]-ET-1] (H-CSCSSLMDKECVYFCHLTNIW-OH; disulfide 1-15, 3-11) are 1.6, 9 % 60 mM KCl and less than 0.1.
